Test results published in patent publication US11286228B2, “Stilbene derivative and method for preparing same” (Ozchela Inc., priority 2016, dated 2022).

The compounds below were run against cyclophilin (assay: Cis-trans isomerase inhibitory activity (chymotrypsin-coupled Suc-AAPF-pNA cleavage, absorbance 390 nm)). Conditions: cyclophilin, chymotrypsin, Suc-AAPF-pNA; read-out: Test Example 1: cis-trans isomerase inhibitory activity (IC50).
Type: biochemical
Description: Chymotrypsin cleaves a trans-type alanine-proline peptide bond. When Suc-AAPF-pNA (a peptide substrate) and chymotrypsin are mixed, the trans-type peptide substrate is cleaved and the cis-type peptide substrate remains. The remaining cis-type peptide substrate is converted into a trans form by a cis-trans isomerase and is then cleaved again by chymotrypsin. When the cis-trans isomerase is present, chymotrypsin is able to cleave a larger amount of trans-type peptide substrate within a predetermined period of time, from which the activity of the cis-trans isomerase may be determined. The amount of the cleaved trans-type peptide substrate is measured using absorbance at 390 nm. Cyclophilin has cis-trans isomerase activity, and accelerates the cleavage of trans-type peptide substrate by chymotrypsin. When the stilbene derivatives of the present invention were treated together with cyclophilin, the cleavage of the peptide substrate by chymotrypsin was not observed to accelerate. Thereby, the stilbene derivatives of the invention can be concluded to inhibit the activity of cyclophilin.

Structure (SMILES) | IC50
CC(C)(C)Cc1ccc(C(N)=Cc2ccccc2C(=O)OC2CCCCC2)cc1 [Compound 107] | 20 to 200 nM
CCCCOC(=O)c1ccccc1C=C(N)c1ccc(CC(C)CC)cc1 (stereo not drawn) [Compound 108] | 20 to 200 nM
CCCCOC(=O)c1ccccc1C=C(N)c1ccc(CC2CCCC2)cc1 [Compound 109] | 20 to 200 nM
CCCCOC(=O)c1ccccc1C=C(N)c1ccc(CC2CCCCC2)cc1 [Compound 110] | 20 to 200 nM
CCCCOC(=O)c1ccccc1C=C(N)c1ccc(Cc2ccccc2)cc1 [Compound 111] | 20 to 200 nM
CCCCOC(=O)c1ccccc1C=C(F)c1ccc(CC(C)(C)C)cc1 [Compound 112] | ≤ 20 nM
CCCCOC(=O)c1c(C)cccc1C=C(Cl)c1ccc(CC(C)(C)C)cc1 [Compound 113] | ≤ 20 nM
CCCCOC(=O)c1ccccc1C=C(Br)c1ccc(CC(C)(C)C)cc1C [Compound 114] | ≤ 20 nM
CCCCOC(=O)c1cc(C)ccc1C=C(I)c1ccc(CC(C)(C)C)cc1 [Compound 115] | ≤ 20 nM
CCCCOC(=O)c1c(C=C(F)c2ccc(CC(C)(C)C)cc2)ccc(C)c1C [Compound 116] | ≤ 20 nM
CCCCCOC(=O)c1ccccc1C=C(Cl)c1ccc(CC(C)(C)C)cc1 [Compound 117] | ≤ 20 nM
CC(C)OC(=O)c1ccccc1C=C(Br)c1ccc(CC(C)(C)C)cc1 [Compound 118] | ≤ 20 nM
CC(C)(C)Cc1ccc(C(I)=Cc2ccccc2C(=O)OCC2CCCCC2)cc1 [Compound 119] | ≤ 20 nM
CC(C)(C)Cc1ccc(C(F)=Cc2ccccc2C(=O)OCc2ccccc2)cc1 [Compound 120] | ≤ 20 nM
CC(C)(C)Cc1ccc(C(Cl)=Cc2ccccc2C(=O)OC2CCCCC2)cc1 [Compound 121] | ≤ 20 nM
CCCCOC(=O)c1ccccc1C=C(Br)c1ccc(CC(C)CC)cc1 (stereo not drawn) [Compound 122] | 20 to 200 nM
CCCCOC(=O)c1ccccc1C=C(I)c1ccc(Cc2ccccc2)cc1 [Compound 123] | 20 to 200 nM
COC(=O)c1ccccc1C=Cc1ccc(CC(C)(C)C)cc1 [Compound 124] | ≤ 20 nM
CCC(C)Cc1ccc(C=Cc2ccccc2C(=O)OC)cc1 (stereo not drawn) [Compound 125] | 20 to 200 nM
COC(=O)c1ccccc1C=Cc1ccc(CC2CCCC2)cc1 [Compound 126] | 20 to 200 nM
COC(=O)c1ccccc1C=Cc1ccc(CC2CCCCC2)cc1 [Compound 127] | 20 to 200 nM
COC(=O)c1ccccc1C=Cc1ccc(Cc2ccccc2)cc1 [Compound 128] | 20 to 200 nM
COC(=O)c1ccccc1C=Cc1ccc(CC(C)C)cc1 [Compound 129] | 20 to 200 nM
CCCCCc1ccc(C=Cc2ccccc2C(=O)OC)cc1 [Compound 130] | ≤ 20 nM
CCCCOC(=O)c1ccccc1C=Cc1ccc(CC(C)C)cc1 [Compound 131] | ≤ 20 nM

Each compound was assayed on hepatitis C virus (assay: Antiviral activity in HCV replicon cells (Renilla luciferase)). Conditions: Hepatitis C virus, 72 h, read-out: Test Example 3: antiviral activity (EC50).
Type: cell-based
Description: The antiviral activity of the stilbene derivatives on hepatitis C virus was measured. The replicon cells that stably replicate the hepatitis C virus genome were attached to a culture plate and cultured in a CO2 incubator at 37° C. for 24 hr. The replicon cells cultured for one day were washed with a PBS solution, treated with the compounds of the present invention, and then cultured for 72 hr. The stilbene derivative-treated replicon cells were washed with a cold PBS solution and added with 20 μL of a cell lysis solution so that the cells were lysed in ice for 20 min. 100 μL of a Renilla luciferase substrate was added thereto, after which the luminescence thereof was measured and thus the amount of the hepatitis C virus genome was estimated. The amount of the hepatitis C virus genome in the stilbene derivative-treated replicon cells according to the present invention relative to the amount of the hepatitis C virus genome in dimethylsulfoxide (DMSO)-treated replicon cells is shown.
Compounds 1 to 155 of Tables 1 to 10 may be grouped as follows based on the antiviral activity (EC50) values: […]

Structure (SMILES) | EC50
CCCCOC(=O)c1ccccc1C=C(N)c1ccc(Cc2ccccc2)cc1 [Compound 111] | 500 to 5000 nM
CCCCOC(=O)c1ccccc1C=C(I)c1ccc(Cc2ccccc2)cc1 [Compound 123] | 500 to 5000 nM
COC(=O)c1ccccc1C=Cc1ccc(Cc2ccccc2)cc1 [Compound 128] | 500 to 5000 nM

Same assay, conditions: Hepatitis C virus; HCV replicon cells, 72 hr, Renilla luciferase, relative to DMSO; read-out: Test Example 3: antiviral activity (EC50)

Structure (SMILES) | EC50
CC(C)(C)Cc1ccc(C(N)=Cc2ccccc2C(=O)OC2CCCCC2)cc1 [Compound 107] | 500 to 5000 nM
CCCCOC(=O)c1ccccc1C=C(N)c1ccc(CC(C)CC)cc1 (stereo not drawn) [Compound 108] | 500 to 5000 nM
CCCCOC(=O)c1ccccc1C=C(N)c1ccc(CC2CCCC2)cc1 [Compound 109] | 500 to 5000 nM
CCCCOC(=O)c1ccccc1C=C(N)c1ccc(CC2CCCCC2)cc1 [Compound 110] | 500 to 5000 nM
CCCCOC(=O)c1ccccc1C=C(F)c1ccc(CC(C)(C)C)cc1 [Compound 112] | < 500 nM
CCCCOC(=O)c1c(C)cccc1C=C(Cl)c1ccc(CC(C)(C)C)cc1 [Compound 113] | < 500 nM
CCCCOC(=O)c1ccccc1C=C(Br)c1ccc(CC(C)(C)C)cc1C [Compound 114] | < 500 nM
CCCCOC(=O)c1cc(C)ccc1C=C(I)c1ccc(CC(C)(C)C)cc1 [Compound 115] | < 500 nM
CCCCOC(=O)c1c(C=C(F)c2ccc(CC(C)(C)C)cc2)ccc(C)c1C [Compound 116] | < 500 nM
CCCCCOC(=O)c1ccccc1C=C(Cl)c1ccc(CC(C)(C)C)cc1 [Compound 117] | < 500 nM
CC(C)OC(=O)c1ccccc1C=C(Br)c1ccc(CC(C)(C)C)cc1 [Compound 118] | < 500 nM
CC(C)(C)Cc1ccc(C(I)=Cc2ccccc2C(=O)OCC2CCCCC2)cc1 [Compound 119] | < 500 nM
CC(C)(C)Cc1ccc(C(F)=Cc2ccccc2C(=O)OCc2ccccc2)cc1 [Compound 120] | < 500 nM
CC(C)(C)Cc1ccc(C(Cl)=Cc2ccccc2C(=O)OC2CCCCC2)cc1 [Compound 121] | < 500 nM
CCCCOC(=O)c1ccccc1C=C(Br)c1ccc(CC(C)CC)cc1 (stereo not drawn) [Compound 122] | 500 to 5000 nM
COC(=O)c1ccccc1C=Cc1ccc(CC(C)(C)C)cc1 [Compound 124] | < 500 nM
CCC(C)Cc1ccc(C=Cc2ccccc2C(=O)OC)cc1 (stereo not drawn) [Compound 125] | 500 to 5000 nM
COC(=O)c1ccccc1C=Cc1ccc(CC2CCCC2)cc1 [Compound 126] | 500 to 5000 nM
COC(=O)c1ccccc1C=Cc1ccc(CC2CCCCC2)cc1 [Compound 127] | 500 to 5000 nM
COC(=O)c1ccccc1C=Cc1ccc(CC(C)C)cc1 [Compound 129] | 500 to 5000 nM
CCCCCc1ccc(C=Cc2ccccc2C(=O)OC)cc1 [Compound 130] | < 500 nM
CCCCOC(=O)c1ccccc1C=Cc1ccc(CC(C)C)cc1 [Compound 131] | < 500 nM

The compounds below were run on mitochondria obtained from hepatocytes (assay: Inhibitory activity on calcium-induced mitochondrial swelling (absorbance 520 nm)). Conditions: Hepatocyte; calcium-induced swelling of extracted mitochondria; read-out: Test Example 4: inhibiting mitochondrial swelling (IC50).
Description: Cyclophilin is a key protein for forming permeability transition pores (PTP) in mitochondria. When permeability transition pores are formed, mitochondria swell, whereby the outer membrane thereof ruptures and thus cell death progresses. Such mitochondrial dysfunction causes many diseases including neurodegenerative diseases, cancer, and the like. Cyclosporine, a known cyclophilin inhibitor, is capable of preventing the formation of permeability transition pores to thus suppress mitochondrial swelling.
The mitochondrial swelling test was performed as follows. Specifically, the hepatocytes were disrupted using a Dounce tissue grinder. The disrupted cells were centrifuged at 700×g for 10 min and the supernatant was transferred into a new tube. The supernatant was centrifuged at 12,000×g for 15 min, thereby obtaining mitochondria.
When the extracted mitochondria were added with calcium, they swelled, which may be observed by measuring the absorbance at 520 nm. The stilbene derivatives are effective at inhibiting mitochondrial swelling due to calcium.
The activity of Compounds 1 to 155 of Tables 1 to 10 on inhibiting mitochondrial swelling may be determined based on IC50 values, and may be grouped as follows: […]

Structure (SMILES) | IC50
CC(C)(C)Cc1ccc(C(N)=Cc2ccccc2C(=O)OC2CCCCC2)cc1 [Compound 107] | 5000 to 50000 nM
CCCCOC(=O)c1ccccc1C=C(N)c1ccc(CC(C)CC)cc1 (stereo not drawn) [Compound 108] | 5000 to 50000 nM
CCCCOC(=O)c1ccccc1C=C(N)c1ccc(CC2CCCC2)cc1 [Compound 109] | 5000 to 50000 nM
CCCCOC(=O)c1ccccc1C=C(N)c1ccc(CC2CCCCC2)cc1 [Compound 110] | 5000 to 50000 nM
CCCCOC(=O)c1ccccc1C=C(N)c1ccc(Cc2ccccc2)cc1 [Compound 111] | 5000 to 50000 nM
CCCCOC(=O)c1ccccc1C=C(F)c1ccc(CC(C)(C)C)cc1 [Compound 112] | < 5000 nM
CCCCOC(=O)c1c(C)cccc1C=C(Cl)c1ccc(CC(C)(C)C)cc1 [Compound 113] | < 5000 nM
CCCCOC(=O)c1ccccc1C=C(Br)c1ccc(CC(C)(C)C)cc1C [Compound 114] | < 5000 nM
CCCCOC(=O)c1cc(C)ccc1C=C(I)c1ccc(CC(C)(C)C)cc1 [Compound 115] | < 5000 nM
CCCCOC(=O)c1c(C=C(F)c2ccc(CC(C)(C)C)cc2)ccc(C)c1C [Compound 116] | < 5000 nM
CCCCCOC(=O)c1ccccc1C=C(Cl)c1ccc(CC(C)(C)C)cc1 [Compound 117] | < 5000 nM
CC(C)OC(=O)c1ccccc1C=C(Br)c1ccc(CC(C)(C)C)cc1 [Compound 118] | < 5000 nM
CC(C)(C)Cc1ccc(C(I)=Cc2ccccc2C(=O)OCC2CCCCC2)cc1 [Compound 119] | < 5000 nM
CC(C)(C)Cc1ccc(C(F)=Cc2ccccc2C(=O)OCc2ccccc2)cc1 [Compound 120] | < 5000 nM
CC(C)(C)Cc1ccc(C(Cl)=Cc2ccccc2C(=O)OC2CCCCC2)cc1 [Compound 121] | < 5000 nM
CCCCOC(=O)c1ccccc1C=C(Br)c1ccc(CC(C)CC)cc1 (stereo not drawn) [Compound 122] | 5000 to 50000 nM
CCCCOC(=O)c1ccccc1C=C(I)c1ccc(Cc2ccccc2)cc1 [Compound 123] | 5000 to 50000 nM
COC(=O)c1ccccc1C=Cc1ccc(CC(C)(C)C)cc1 [Compound 124] | < 5000 nM
CCC(C)Cc1ccc(C=Cc2ccccc2C(=O)OC)cc1 (stereo not drawn) [Compound 125] | 5000 to 50000 nM
COC(=O)c1ccccc1C=Cc1ccc(CC2CCCC2)cc1 [Compound 126] | 5000 to 50000 nM
COC(=O)c1ccccc1C=Cc1ccc(CC2CCCCC2)cc1 [Compound 127] | 5000 to 50000 nM
COC(=O)c1ccccc1C=Cc1ccc(Cc2ccccc2)cc1 [Compound 128] | 5000 to 50000 nM
COC(=O)c1ccccc1C=Cc1ccc(CC(C)C)cc1 [Compound 129] | 5000 to 50000 nM
CCCCCc1ccc(C=Cc2ccccc2C(=O)OC)cc1 [Compound 130] | < 5000 nM
CCCCOC(=O)c1ccccc1C=Cc1ccc(CC(C)C)cc1 [Compound 131] | < 5000 nM
